Several values for one entry are separate records, joined by “and”; a condition that tells them apart may be missing. Equal values may be shown once. Read-outs that look alike come from different tables or passages of the source.
Key:
Type in all cases: in vivo
[1] = system: bird's-eye speedwell (Veronica persica L; VERPE); test: Postemergence herbicidal activity of mixtures in cereal crops (greenhouse, visual injury); conditions: for VERPE Ob: Table 28
Procedure, shortened: (§1)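 Weeds grown in greenhouse (~14 h photoperiod, ~18/17 °C day/night) to second–third true leaf stage, sprayed postemergence with compound and second cereal herbicide alone or combined; solvent-blank controls. Injury scored visually after 20-22 days, 0–100% (complete kill); expected mixture activity = A+B−(A×B/100).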

[2] = system: wild pansy (Viola tricolor L; VIOTR); test: as above; conditions: Viola tricolor, post-emergence, read-out: VIOTR Ob
Procedure, shortened: as §1

[3] = system: downy brome (Bromus tectorum L; BROTE); test: as above
Procedure, shortened: (§2)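 Injury ratings (0–100%) taken 20–22 days post-spray versus solvent-blank controls. Treatment: 187 L/ha track spray, 2nd–3rd leaf plants, Compound A/B with second cereal herbicide.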

[4] = system: kochia (Kochia scoparia L; KCHSC); test: as above
Procedure, shortened: as §2

[5] = system: annual bluegrass (Poa annua L; POAAN); test: as above
Procedure, shortened: as §2

[6] = system: lady's-thumb (Polygonum persicaria L; POLPE); test: as above
Procedure, shortened: as §2

[7] = system: wild mustard (Sinapis arvensis L; SINAR); test: as above
Procedure, shortened: as §2

[8] = system: Italian ryegrass (Lolium multiflorum L; LOLMU); test: as above; conditions: for LOLMU: Table 13
Procedure, shortened: as §2

[9] = system: Fimbristylis miliacea (L.) VAHL (FIMMI); test: Postemergence herbicidal mixtures for weed control in direct seeded rice (greenhouse, visual % injury); conditions: FIMMI
Cyperus iria L. (CYPIR) = test: as above; conditions: for % Injury Ob: CYPIR
[10] = system: canola (Brassica napus L; BRSNN); test: Postemergence herbicidal activity of mixtures in cereal crops (greenhouse, visual injury)
Procedure, shortened: as §2

For `COc1c(Cl)ccc(-c2cc(N)c(Cl)c(C(=O)O)n2)c1F` [Compound A TEA, 4-amino-3-chloro-6-(4-chloro-2-fluoro-3-methoxyphenyl)pyridine-2-carboxylic acid], the “VERPE Ob” value ([1]; 35 g/ha) was 75%, the “VERPE Ob” value ([1]; 70 g/ha) was 80% and the “VERPE Ob” value ([1]; 140 g/ha) was 85%. The pest or weed control at 8.75 g/ha ([1]; Veronica persica, post-emergence, 8.75 g/ha alone, read-out: VERPE Ob) was 48%, the pest or weed control at 17.5 g/ha ([1]; Veronica persica, post-emergence, 17.5 g/ha alone, read-out: VERPE Ob) was 68% and the pest or weed control at 35 g/ha ([1]; Veronica persica, post-emergence, 35 g/ha alone, read-out: VERPE Ob) was 79%. The pest or weed control at 35 g/ha ([1]; Veronica persica, post-emergence, 35 g/ha, 1st VERPE column, read-out: VERPE Ob) was 60%, the pest or weed control at 35 g/ha ([1]; Veronica persica, post-emergence, 35 g/ha, 2nd VERPE column, read-out: VERPE Ob) was 75% and the pest or weed control at 70 g/ha ([1]; Veronica persica, post-emergence, 70 g/ha alone, read-out: VERPE Ob) was 88%. For the same compound, the pest or weed control at 70 g/ha ([1]; Veronica persica, post-emergence, 70 g/ha, 1st VERPE column, read-out: VERPE Ob) was 60%, the pest or weed control at 70 g/ha ([1]; Veronica persica, post-emergence, 70 g/ha, 2nd VERPE column, read-out: VERPE Ob) was 80% and the pest or weed control at 140 g/ha ([1]; Veronica persica, post-emergence, 140 g/ha, 1st VERPE column, read-out: VERPE Ob) was 60%. It also gave a pest or weed control at 140 g/ha ([1]; Veronica persica, post-emergence, 140 g/ha, 2nd VERPE column, read-out: VERPE Ob) of 85%, a pest or weed control at 8.75 g/ha ([2]; 8.75 g/ha alone) of 30% and a pest or weed control at 17.5 g/ha ([2]; 17.5 g/ha alone) of 40%. For the same compound, the pest or weed control at 35 g/ha ([2]; 35 g/ha alone) was 47%, the pest or weed control at 35 g/ha ([2]; 35 g/ha) was 30% and the pest or weed control at 70 g/ha ([2]; 70 g/ha alone) was 60%. The pest or weed control at 70 g/ha ([2]; 70 g/ha) was 60%, the pest or weed control at 140 g/ha ([2]; 140 g/ha) was 60% and the “BROTE Ob” value ([3]; 35 g/ha, Table 15) was 0%. The “BROTE Ob” value ([3]; 35 g/ha, Table 16) was 0%, the “BROTE Ob” value ([3]; 35 g/ha, Table 18) was 0% and the “BROTE Ob” value ([3]; 70 g/ha, Table 15) was 0%. For the same compound, the “BROTE Ob” value ([3]; 70 g/ha, Table 16) was 0%, the “BROTE Ob” value ([3]; 70 g/ha, Table 18) was 3% and the “BROTE Ob” value ([3]; 140 g/ha, Table 15) was 0%. The “BROTE Ob” value ([3]; 140 g/ha, Table 16) was 0%, the “BROTE Ob” value ([3]; 140 g/ha, Table 18) was 3% and the “KCHSC Ob” value ([4]; 8.75 g/ha) was 35%. For the same compound, the “KCHSC Ob” value ([4]; 8.75 g/ha alone) was 65%, the “KCHSC Ob” value ([4]; 17.5 g/ha) was 60% and the “KCHSC Ob” value ([4]; 17.5 g/ha alone) was 77%. The “KCHSC Ob” value ([4]; 35 g/ha) was 65%, the “KCHSC Ob” value ([4]; 35 g/ha alone) was 92% and the “KCHSC Ob” value ([4]; 70 g/ha) was 70%. The “KCHSC Ob” value ([4]; 70 g/ha alone) was 99%, the “POAAN Ob” value ([5]; 35 g/ha, Table 16) was 0% and the “POAAN Ob” value ([5]; 35 g/ha, Table 17) was 0%. The “POAAN Ob” value ([5]; 70 g/ha, Table 16) was 0%, the “POAAN Ob” value ([5]; 70 g/ha, Table 17) was 0% and the “POAAN Ob” value ([5]; 140 g/ha, Table 16) was 0%. For the same compound, the “POAAN Ob” value ([5]; 140 g/ha, Table 17) was 0%, the “POLPE Ob” value ([6]; 8.75 g/ha alone) was 30% and the “POLPE Ob” value ([6]; 17.5 g/ha alone) was 41%. The “POLPE Ob” value ([6]; 35 g/ha alone) was 68%, the “SINAR Ob” value ([7]; 8.75 g/ha) was 35% and the “SINAR Ob” value ([7]; 17.5 g/ha) was 60%. For the same compound, the “SINAR Ob” value ([7]; 35 g/ha) was 65%, the “SINAR Ob” value ([7]; 70 g/ha) was 70% and the LOLMU ([8]; 35 g/ha) was 0%. For the same compound, the “LOLMU Ob” value ([8]; 35 g/ha, Table 14) was 0%, the “LOLMU Ob” value ([8]; 35 g/ha, Table 17) was 0% and the LOLMU ([8]; 70 g/ha) was 0%. The “LOLMU Ob” value ([8]; 70 g/ha, Table 14) was 3%, the “LOLMU Ob” value ([8]; 70 g/ha, Table 17) was 0% and the LOLMU ([8]; 140 g/ha) was 0%. The “LOLMU Ob” value ([8]; 140 g/ha, Table 14) was 3% and the “LOLMU Ob” value ([8]; 140 g/ha, Table 17) was 5%.

For `O=C(O)c1c(Cl)ccc2cc(Cl)cnc12` [Quinclorac], the “% Injury Ob” value ([9]; 140 g/ha alone) was 0%, the “% Injury Ob” value (Cyperus iria L. (CYPIR); 140 g/ha alone) was 0% and the “KCHSC Ob” value ([4]; 140 g/ha alone) was 0%.

For `COC(=O)c1nc(-c2ccc(Cl)c(OC)c2F)nc(N)c1Cl` [Compound B Methyl, 6-amino-5-chloro-2-(4-chloro-2-fluoro-3-methoxyphenyl)pyrimidine-4-carboxylic acid methyl ester], the “BRSNN Ob” value ([10]; 8.75 g/ha alone) was 20%, the “BRSNN Ob” value ([10]; 17.5 g/ha alone) was 35% and the “BRSNN Ob” value ([10]; 35 g/ha alone) was 50%. For the same compound, the “BRSNN Ob” value ([10]; 70 g/ha alone) was 55%.

`COC(=O)c1nc(-c2ccc(Cl)c(OC)c2F)cc(N)c1Cl` [Compound A Methyl, 4-amino-3-chloro-6-(4-chloro-2-fluoro-3-methoxyphenyl)pyridine-2-carboxylic acid methyl ester] gave a pest or weed control at 17.5 g/ha ([1]; Veronica persica, post-emergence, 17.5 g/ha, read-out: VERPE Ob) of 45%, a pest or weed control at 35 g/ha ([1]; Veronica persica, post-emergence, 35 g/ha, read-out: VERPE Ob) of 58% and a pest or weed control at 70 g/ha ([1]; Veronica persica, post-emergence, 70 g/ha, read-out: VERPE Ob) of 70%. It also gave a pest or weed control at 17.5 g/ha ([2]; 17.5 g/ha) of 55%, a pest or weed control at 35 g/ha ([2]; 35 g/ha) of 63% and a pest or weed control at 70 g/ha ([2]; 70 g/ha) of 75%. The “% Injury Ob” value ([9]; 4.38 g/ha alone) was 20%, the “% Injury Ob” value ([9]; 8.75 g/ha alone) was 40% and the “% Injury Ob” value (Cyperus iria L. (CYPIR); 35 g/ha alone) was 50%. For the same compound, the “% Injury CYPIR Ob” value (Cyperus iria L. (CYPIR); alone 4.38 g/ha) was 70%, the “% Injury CYPIR Ob” value (Cyperus iria L. (CYPIR); alone 35 g/ha) was 50% and the “BROTE Ob” value ([3]; 35 g/ha, Table 8) was 0.0%. For the same compound, the “BROTE Ob” value ([3]; 35 g/ha, Table 9) was 0%, the “BROTE Ob” value ([3]; 35 g/ha, Table 10) was 0% and the “BROTE Ob” value ([3]; 70 g/ha, Table 8) was 0.0%. For the same compound, the “BROTE Ob” value ([3]; 70 g/ha, Table 9) was 0%, the “BROTE Ob” value ([3]; 70 g/ha, Table 10) was 0% and the “BROTE Ob” value ([3]; 140 g/ha, Table 8) was 13%. For the same compound, the “BROTE Ob” value ([3]; 140 g/ha, Table 9) was 13%, the “BROTE Ob” value ([3]; 140 g/ha, Table 10) was 13% and the “POAAN Ob” value ([5]; 35 g/ha, Table 9) was 0%. For the same compound, the “POAAN Ob” value ([5]; 35 g/ha, Table 10) was 0%, the “POAAN Ob” value ([5]; 70 g/ha, Table 9) was 3% and the “POAAN Ob” value ([5]; 70 g/ha, Table 10) was 3%. The “POAAN Ob” value ([5]; 140 g/ha, Table 9) was 3%, the “POAAN Ob” value ([5]; 140 g/ha, Table 10) was 3% and the “POLPE Ob” value ([6]; 8.75 g/ha) was 50%. For the same compound, the “POLPE Ob” value ([6]; 17.5 g/ha) was 50%, the “POLPE Ob” value ([6]; 35 g/ha) was 65% and the “POLPE Ob” value ([6]; 70 g/ha) was 70%. For the same compound, the “SINAR Ob” value ([7]; 17.5 g/ha) was 70% and 80%, the “SINAR Ob” value ([7]; 35 g/ha) was 80% and 85% and the “SINAR Ob” value ([7]; 70 g/ha) was 85%. For the same compound, the “BRSNN Ob” value ([10]; 8.75 g/ha) was 50%, the “BRSNN Ob” value ([10]; 17.5 g/ha) was 50% and the “BRSNN Ob” value ([10]; 35 g/ha) was 50%. The “BRSNN Ob” value ([10]; 70 g/ha) was 50%, the “LOLMU Ob” value ([8]; 35 g/ha, Table 10) was 3% and the “LOLMU Ob” value ([8]; 70 g/ha, Table 10) was 20%. The “LOLMU Ob” value ([8]; 140 g/ha, Table 10) was 40%.

Reference: patent US10556865B2, “Synergistic herbicidal composition containing certain pyridine or pyrimidine carboxylic acids and certain cereal and rice herbicides” (Dow AgroSciences, LLC, priority 2007, dated 2020)
